Among the data in patent publication US9527832B2, “Substituted condensed pyrimidine compounds” (GRÜNENTHAL GMBH, priority 2013, dated 2016) are inhibition and IC50 values, retold here.

pIC50: −log10 of the molar value.

The test concerns the target T1, human PDE4B1 (Homo sapiens, UniProt Q07343).
T1 construct: host or cells: Sf9 cells
The test can be described thus: cAMP HTRF assay to determine the activity of hPDE4B1. It counts as biochemical. The note with it: for inhibition at 1 µM: Percentage inhibition of PDE4B at 1 μM test concentration; for pIC50: dose response measurements with eight concentrations, reported as ranges, read-out: IC50. The method, then: cAMP HTRF® Assay to Determine the Activity of hPDE4B1
The inhibiting effect of the compounds on the enzyme activity of human PDE4B1 was measured by the quantification of 5′-adenosine monophosphate (5′-AMP), which is formed from 3′,5′-cyclic adenosine monophosphate (cAMP). Human recombinant enzyme, expressed in Sf9 cells, and the HTRF (homogeneous time-resolved fluorescence) detection method were used in the assay.
The test compound or water (control) was mixed with the human recombinant PDE4B1 enzyme (4.8 U) in a buffer consisting of 44.4 mM tris-HCl, 5.28 mM MgCl2, 2.64 mM DTT and 0.044% Tween 20 (pH 7.8). After adding the cAMP enzyme substrate (final concentration 40 nM), the mixture was incubated for 30 minutes at room temperature. Then a fluorescence acceptor (Dye2 marked with cAMP), a fluorescence donor (anti-cAMP antibody marked with a europium cryptate) and the non-specific phosphodiesterase inhibitor IBMX (3-isobutyl-1-methylxanthine; final concentration 1 mM) were added. After 60 minutes the fluorescence transfer, which correlates with the amount of remaining cAMP, was measured with a microplate reader (Rubystar, BMG) at λex=337 nm, λem=620 nm and λem=665 nm. The enzyme activity was calculated from the quotient formed from the measured signal at 665 nm and that at 620 nm. The result was expressed as the percentage inhibition of enzyme activity of the control (without PDE4 inhibitor). The enzyme was omitted for measurement of the basal control.
IC50 values (IC50=concentration causing a half-maximal inhibition of control specific activity) were derived from dose response measurements with eight different concentrations (n=2; N=1-2).
Literature: N. Saldou et al., Comparison of recombinant human PDE4 isoforms: interaction with substrate and inhibitors, Cell. Signal. Vol. 10, No. 6, 427-440, 1998

T1 sequence (Q07343 whole entry): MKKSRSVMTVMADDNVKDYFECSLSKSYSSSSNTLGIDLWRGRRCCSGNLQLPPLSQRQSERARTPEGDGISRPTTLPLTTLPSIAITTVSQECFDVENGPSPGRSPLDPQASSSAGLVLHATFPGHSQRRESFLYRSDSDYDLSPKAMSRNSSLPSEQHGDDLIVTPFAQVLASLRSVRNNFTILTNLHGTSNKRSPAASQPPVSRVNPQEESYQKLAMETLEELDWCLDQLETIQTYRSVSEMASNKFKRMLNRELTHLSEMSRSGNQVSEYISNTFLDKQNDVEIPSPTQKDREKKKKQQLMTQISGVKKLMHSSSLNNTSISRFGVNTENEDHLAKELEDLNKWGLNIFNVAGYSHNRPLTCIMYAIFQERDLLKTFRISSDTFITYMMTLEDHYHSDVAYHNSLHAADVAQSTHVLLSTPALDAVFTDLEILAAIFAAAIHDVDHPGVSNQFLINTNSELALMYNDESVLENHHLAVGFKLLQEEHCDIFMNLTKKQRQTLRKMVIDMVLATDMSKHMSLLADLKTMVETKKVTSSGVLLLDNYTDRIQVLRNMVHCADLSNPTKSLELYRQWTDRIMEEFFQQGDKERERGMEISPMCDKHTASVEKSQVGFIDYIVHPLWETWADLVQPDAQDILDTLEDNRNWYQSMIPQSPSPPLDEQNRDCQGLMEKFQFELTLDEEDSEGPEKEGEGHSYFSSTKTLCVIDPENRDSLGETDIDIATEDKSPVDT

Consider `COc1ccc(-c2nc3c(c(N4CCc5cc(CC(=O)O)ccc54)n2)CCCC3)cc1Cl` [Compound No. 1-39, 2-(1-(2-(3-Chloro-4-methoxyphenyl)-5,6,7,8-tetrahydroqiuinazolin-4-yl)indolin-5-yl)acetic acid], for which the inhibition at 1 µM was determined as 63% and the negative logarithm of the IC50 (pIC50) was 6.00 to 7.00. On to `O=C(O)Cc1ccc2c(c1)CCN2c1nc(-c2ccc(Cl)s2)nc2c1CCC2` [Compound No. 1-13, 2-(1-(2-(5-Chlorothiophen-2-yl)-6,7-dihydro-5H-cyclopenta[d]-pyrimidin-4-yl)indolin-5-yl)acetic acid], for which the inhibition at 1 µM is 78% and the negative logarithm of the IC50 (pIC50) was above 7.00. For `CN(CC1CC1)C(=O)COc1ccc2c(c1)N(c1nc(-c3ccc(Cl)s3)nc3c1CS(=O)(=O)C3)CC2` [Compound No. 2-57, 2-((1-(2-(5-Chlorothiophen-2-yl)-6,6-dioxido-5,7-dihydrothieno[3,4-d]pyrimidin-4-yl)indolin-6-yl)oxy)-N-(cyclopropylmethyl)-N-methylacetamide], the inhibition at 1 µM stood at 89% and the pIC50 was above 7.00.

For `CN(C)C(=O)COc1ccc2c(c1)N(c1nc(-c3ccc(O)c(F)c3)nc3c1C[S+]([O-])C3)CC2` (stereo not shown) [Compound No. 2-79, 2-((1-(2-(3-Fluoro-4-hydroxyphenyl)-6-oxido-5,7-dihydrothieno[3,4-d]pyrimidin-4-yl)indolin-6-yl)oxy)-N,N-dimethylacetamide], the inhibition at 1 µM worked out at 92% and the pIC50 was above 7.00.

As for `CN(C)C(=O)COc1ccc2c(c1)N(c1nc(-c3ccc(Br)c(F)c3)nc3c1C[S+]([O-])C3)CC2` (stereo not shown) [Compound No. 2-86, 2-((1-(2-(4-Bromo-3-fluorophenyl)-6-oxido-5,7-dihydrothieno[3,4-d]pyrimidin-4-yl)indolin-6-yl)oxy)-N,N-dimethylacetamide], the inhibition at 1 µM was found to be 111% and the negative logarithm of the IC50 (pIC50) is 6.00 to 7.00. On the same counts, the results for `CC(C)NC(=O)COc1ccc2c(c1)N(c1nc(-c3ccc(Cl)s3)nc3c1CS(=O)(=O)C3)CC2` [Compound No. 2-54, 2-((1-(2-(5-Chlorothiophen-2-yl)-6,6-dioxido-5,7-dihydrothieno[3,4-d]pyrimidin-4-yl)indolin-6-yl)oxy)-N-isopropylacetamide] are 54% and 6.00 to 7.00. The matching figures for `O=C(O)Cc1ccc2c(c1)CCN2c1nc(-c2ccc(F)s2)nc2c1CSC2` [Compound No. 1-23, 2-(1-(2-(5-Fluorothiophen-2-yl)-5,7-dihydrothieno[3,4-d]pyrimidin-4-yl)indolin-5-yl)acetic acid]: 93% and above 7.00.

With `COc1ccc(-c2nc3c(c(N4CCc5ccc(OCC(=O)N6CCCC6)cc54)n2)C[S+]([O-])C3)cc1` (stereo not shown) [Compound No. 2-121, 2-((1-(2-(4-Methoxyphenyl)-6-oxido-5,7-dihydrothieno[3,4-d]pyrimidin-4-yl)indolin-6-yl)oxy)-1-(pyrrolidin-1-yl)ethanone], the inhibition at 1 µM came out at 111%. In the case of `CN(C)CCOc1ccc2c(c1)N(c1nc(-c3ccc(Cl)s3)nc3c1CS(=O)(=O)C3)CC2` [Compound No. 3-3, 2-(5-Chlorothiophen-2-yl)-4-(6-(2-(dimethylamino)ethoxy)indolin-1-yl)-5,7-dihydrothieno[3,4-d]pyrimidine 6,6-dioxide], the negative logarithm of the IC50 (pIC50) is 6.00 to 7.00. Consider `O=C(COc1ccc2c(c1)N(c1nc(-c3ccc(Cl)s3)nc3c1CS(=O)(=O)C3)CC2)N1CCC1` [Compound No. 2-124, 1-(Azetidin-1-yl)-2-((1-(2-(5-chlorothiophen-2-yl)-6,6-dioxido-5,7-dihydrothieno[3,4-d]pyrimidin-4-yl)indolin-6-yl)oxy)ethanone], for which the inhibition at 1 µM was found to be 104% and the pIC50 was above 7.00.

With `CN(C)C(=O)COc1ccc2c(c1)N(c1nc(-c3ccc(F)c(F)c3)nc3c1CS(=O)(=O)C3)CC2` [Compound No. 2-41, 2-((1-(2-(3,4-Difluorophenyl)-6,6-dioxido-5,7-dihydrothieno[3,4-d]pyrimidin-4-yl)indolin-6-yl)oxy)-N,N-dimethylacetamide], the inhibition at 1 µM was 85% and the negative-log IC50 (pIC50) is above 7.00.

For `O=C(O)c1ccc2c(cnn2-c2nc(-c3ccc(Cl)s3)nc3c2CCC3)c1` [Compound No. 1-73, 1-(2-(5-Chlorothiophen-2-yl)-6,7-dihydro-5H-cyclopenta[d]pyrimidin-4-yl)-1H-indazole-5-carboxylic acid], the inhibition at 1 µM was found to be 80% and the pIC50 is 6.00 to 7.00. On the same counts, the results for `COc1ccc(-c2nc3c(c(N4CCc5cc(CC(=O)O)ccc54)n2)CSC3)cc1Cl` [Compound No. 1-5, 2-(1-(2-(3-Chloro-4-methoxyphenyl)-5,7-dihydrothieno[3,4-d]pyrimidin-4-yl)indolin-5-yl)acetic acid] are 98% and above 7.00. Regarding `CN(C)C(=O)COc1ccc2ccn(-c3nc(-c4ccc(Cl)s4)nc4c3C[S+]([O-])C4)c2c1` (stereo not shown) [Compound No. 2-73, 2-((1-(2-(5-Chlorothiophen-2-yl)-6-oxido-5,7-dihydrothieno[3,4-d]pyrimidin-4-yl)-1H-indol-6-yl)oxy)-N,N-dimethylacetamide], the inhibition at 1 µM amounted to 116% and the pIC50 was above 7.00. `CN(C)C(=O)COc1ccc2c(c1)N(c1nc(-c3ccccc3NS(C)(=O)=O)nc3c1C[S+]([O-])C3)CC2` (stereo not shown) [2-104, 2-[[1-[2-[2-(Methanesulfonamido)-phenyl]-6-oxo-5,7-dihydro-thieno[3,4-d]pyrimidin-4-yl]-2,3-dihydro-1H-indol-6-yl]oxy]-N,N-dimethyl-acetamide]: the inhibition at 1 µM is 85% and the pIC50 was 6.00 to 7.00. For `CN(C)C(=O)COc1ccc2c(c1)N(c1nc(-c3ccc(F)s3)nc3c1CS(=O)(=O)C3)CC2` [Compound No. 2-49, 2-((1-(2-(5-Fluorothiophen-2-yl)-6,6-dioxido-5,7-dihydrothieno[3,4-d]pyrimidin-4-yl)indolin-6-yl)oxy)-N,N-dimethylacetamide], the inhibition at 1 µM was determined as 127% and the negative-log IC50 (pIC50) is above 7.00. On the same counts, the results for `CN(C)C(=O)COc1ccc2c(c1)N(c1nc(-c3cccnc3)nc3c1CS(=O)(=O)C3)CC2` [Compound No. 2-136, 2-((1-(6,6-Dioxido-2-(pyridin-3-yl)-5,7-dihydrothieno[3,4-d]pyrimidin-4-yl)indolin-6-yl)oxy)-N,N-dimethylacetamide] are 98% and above 7.00. In the case of `COc1ccc(-c2nc3c(c(N4CCc5ccc(OCC(=O)N6CCCC6)cc54)n2)C[S+]([O-])C3)cc1F` (stereo not shown) [Compound No. 2-119, 2-((1-(2-(3-Fluoro-4-methoxyphenyl)-6-oxido-5,7-dihydrothieno[3,4-d]pyrimidin-4-yl)indolin-6-yl)oxy)-1-(pyrrolidin-1-yl)ethanone], the inhibition at 1 µM was found to be 107%. For the compound `CN(C)C(=O)COc1ccc2ncn(-c3nc(-c4ccc(Cl)s4)nc4c3C[S+]([O-])C4)c2c1` (single isomer, unassigned) [Compound No. 2-74, 2-((1-(2-(5-Chlorothiophen-2-yl)-6-oxido-5,7-dihydrothieno[3,4-d]pyrimidin-4-yl)-1H-benzo[d]imidazol-6-yl)oxy)-N,N-dimethylacetamide], the inhibition at 1 µM came to 80% and the pIC50 was 6.00 to 7.00. In the case of `COc1ccccc1-c1nc2c(c(N3CCc4ccc(OCC(=O)N(C)C)cc43)n1)C[S+]([O-])C2` (stereo not shown) [2-88, 2-[[1-[2-(2-Methoxyphenyl)-6-oxo-5,7-dihydro-thieno[3,4-d]pyrimidin-4-yl]-2,3-dihydro-1H-indol-6-yl]oxy]-N,N-dimethyl-acetamide], the inhibition at 1 µM came out at 73% and the negative logarithm of the IC50 (pIC50) is 6.00 to 7.00. `O=C(O)Cc1ccc2c(c1)CCN2c1nc(-c2csc(Cl)c2)nc2c1CCC2` [Compound No. 1-19, 2-(1-(2-(5-Chlorothiophen-3-yl)-6,7-dihydro-5H-cyclopenta[d]pyrimidin-4-yl)indolin-5-yl)acetic acid]: the inhibition at 1 µM is 85% and the negative-log IC50 (pIC50) was above 7.00. Turning to `O=C(COc1ccc2c(c1)N(c1nc(-c3ccncc3)nc3c1C[S+]([O-])C3)CC2)N1CCC1` (stereo not shown) [Compound No. 2-134, 1-(Azetidin-1-yl)-2-((1-(6-oxido-2-(pyridin-4-yl)-5,7-dihydrothieno[3,4-d]pyrimidin-4-yl)indolin-6-yl)oxy)ethanone], the inhibition at 1 µM is 77% and the pIC50 is above 7.00. With `CN(C)C(=O)COc1ccc2c(c1)N(c1nc(-c3ccc(C#N)c(F)c3)nc3c1C[S+]([O-])C3)CC2` (stereo not shown) [Compound No. 2-77, 2-((1-(2-(4-Cyano-3-fluorophenyl)-6-oxido-5,7-dihydrothieno[3,4-d]pyrimidin-4-yl)indolin-6-yl)oxy)-N,N-dimethylacetamide], the inhibition at 1 µM is 92% and the negative logarithm of the IC50 (pIC50) was above 7.00.

One may read the inhibition as the change of the read-out against control, counted positive when it falls. The term pIC50 denotes −log10 of the IC50, conventionally taken in molar units.
